We go through one compound from US12324893B2, “Triptan microporation delivery system” (PassPort Technologies, Inc., priority 2019, dated 2025).

Structures are written as SMILES.

The AUC is the area under the concentration-time curve, a measure of exposure. A high value points to more exposure. The term Cmax denotes the highest concentration seen after dosing. The term Tmax denotes the time at which the peak concentration occurs.

The nature of data set [1]: Administration route study in hairless rats (Example 4). It counts as in vivo. Conditions: for AUC / Cmax / Tmax: rat, blood. As to the method:
Hairless rats were used as experimental animals. After oral administration of a drug solution (2.0 ml) containing 2.0 mg of zolmitriptan, blood was collected at a desired time, each medicinal component was extracted according to a conventional method, then blood concentration was quantified by high performance liquid chromatography (LC-MS/MS).
Hairless rats were used as experimental animals. After intravenous administration of a drug solution (10 μl) containing 2 mg of zolmitriptan, blood was collected at a desired time, each medicinal component was extracted according to a conventional method, then blood concentration was quantified by high performance liquid chromatography (LC-MS/MS).
Hairless rats were used as experimental animals. After intravenous administration of a drug solution (200 μl) containing 2 mg of zolmitriptan, blood was collected at a desired time, each medicinal component was extracted according to a conventional method, then blood concentration was quantified by high performance liquid chromatography (LC-MS/MS).
Hairless rats were used as experimental animals. A drug patch was affixed on the flank side of skin of experimental animals that had undergone microporation treatment under the desired conditions. In this study, microporation condition of transdermal microporation was 400 pores/cm^2, 5.2 mJ/filament. The administration side was 1 cm^2. During the period where the patch was affixed, and after it had adhered, blood was collected at a desired time, each medicinal component was extracted according to a conventional method, then blood concentration was quantified by high performance liquid chromatography (LC-MS/MS). A Patch formulation of this study was 2 mg Zolmitriptan, sucrose 0.5 mg, AA 4 mg, 1 cm^2 non-woven matrix (EH-1212, WHC=4 mg/cm^2),
The given bioavailability of Table 5 is absolute bioavailability against IV injection.

Test in data set [2]: as above
In kind it is in vivo. Particulars: Group 2: 2 mg zolmitriptan.

Setting [3] is: Group 1: 2 mg zolmitriptan, oral administration.
The mark [4] stands for this setting: Group 3: 2 mg zolmitriptan, intravenous injection.
[5] abbreviates: topical or ocular, Group 4: 2 mg zolmitriptan, transdermal microporation (400 pores/cm^2, 5.2 mJ/filament, 1 cm^2).
[6] abbreviates: rat, blood, inhaled or intranasal.

Turning to `CN(C)CCc1c[nH]c2ccc(C[C@H]3COC(=O)N3)cc12` [Zolmitriptan], the BA came out at 11.4% in data set [1] (Group 1: 2 mg zolmitriptan, oral administration, absolute bioavailability against IV injection); 100.0% in data set [1] (Group 3: 2 mg zolmitriptan, intravenous injection, absolute bioavailability against IV injection (reference)); 71.4% in data set [1] (Group 4: 2 mg zolmitriptan, transdermal microporation (400 pores/cm^2, 5.2 mJ/filament, 1 cm^2), absolute bioavailability against IV injection); 12.0% in data set [2] (intranasal administration, absolute bioavailability against IV injection). Besides, the AUC in data set [1] (setting [3]) amounted to 227 ng·h/mL; in data set [1] (setting [4]), 2000 ng·h/mL; in data set [1] (topical or ocular, Group 4: 2 mg zolmitriptan, transdermal microporation (400 pores/cm^2, 5.2 mJ/filament, 1 cm^2; patch with sucrose 0.5 mg, AA 4 mg)) it was 1430 ng·h/mL; in data set [2] (setting [6]), 239 ng·h/mL. Also, the Cmax in data set [1] (setting [3]) came out at 74 ng/mL; in data set [1] (setting [4]), 5020 ng/mL; in data set [1] (setting [5]) it was 577 ng/mL; in data set [2] (setting [6]), 127 ng/mL. In addition, the Tmax amounted to 4.5 h in data set [1] (setting [3]), 0.05 h in data set [1] (setting [4]), 0.63 h in data set [1] (setting [5]) and 2.25 h in data set [2] (setting [6]).
